Measurements taken from US9783537B2, “3-(4-ethylnylphenyl) pyridopyrimidinone compounds and process for preparation thereof useful as potential anticancer agents” (Council of Scientific & Industrial Research, priority 2013, dated 2017).
Like-named read-outs stand apart in the source and are kept apart here.

Key:
[1] = test system: OVCAR-4; assay: SRB 48 h growth assay, Ovarian OVCAR-4; assay type: cell-based, human; conditions: OVCAR-4, Ovarian
[2] = test system: NCI-H460; assay: SRB 48 h growth assay, Non-small Cell Lung NCI-H460; assay type: cell-based, human
[3] = test system: SN12C; assay: SRB 48 h growth assay, Renal SN12C; assay type: cell-based, human
[4] = in vitro anticancer activity, non-small cell lung panel; assay type: cell-based; conditions: Homo sapiens; nine non-small cell lung cancer cell lines, exposure at least 48 h; read-out: GI50, range over panel
[5] = test system: SK-MEL-28; assay: SRB 48 h growth assay, Melanoma SK-MEL-28; assay type: cell-based, human; conditions: SK-MEL-28, Melanoma
[6] = test system: MDA-MB-231/ATCC; assay: SRB 48 h growth assay, Breast MDA-MB-231/ATCC; assay type: cell-based, human; conditions: for GI50 / CC50: Homo sapiens; for CC50: read-out: Log10 LC50 (converted)
[7] = test system: RXF393; assay: SRB 48 h growth assay, Renal RXF393; assay type: cell-based, human; conditions: for GI50 / CC50: Homo sapiens; for CC50: RXF 393, read-out: Log10 LC50 (converted)
[8] = test system: A549/ATCC; assay: SRB 48 h growth assay, Non-small Cell Lung A549/ATCC; assay type: cell-based, human; conditions: for GI50 / CC50: Homo sapiens; for CC50: read-out: Log10 LC50 (converted)
[9] = test system: SK-OV-3; assay: SRB 48 h growth assay, Ovarian SK-OV-3; assay type: cell-based, human; conditions: SK-OV-3, Ovarian; for GI50 / CC50: Homo sapiens; for CC50: read-out: Log10 LC50 (converted)
[10] = test system: SNB-75; assay: SRB 48 h growth assay, CNS SNB-75; assay type: cell-based, human; conditions: SNB-75, CNS
[11] = test system: NCI-H522; assay: SRB 48 h growth assay, Non-small Cell Lung NCI-H522; assay type: cell-based, human
[12] = test system: SNB-19; assay: SRB 48 h growth assay, CNS SNB-19; assay type: cell-based, human; conditions: SNB-19, CNS; for GI50 / CC50: Homo sapiens; for CC50: read-out: Log10 LC50 (converted)
[13] = test system: HOP-62; assay: SRB 48 h growth assay, Non-small Cell Lung HOP-62; assay type: cell-based, human; conditions: HOP-62, Non-small Cell Lung
[14] = test system: NCI/ADR-RES; assay: SRB 48 h growth assay, Ovarian NCI/ADR-RES; assay type: cell-based, human; conditions: for GI50 / CC50: Homo sapiens; for CC50: read-out: Log10 LC50 (converted)
[15] = test system: SF-539; assay: SRB 48 h growth assay, CNS SF-539; assay type: cell-based, human; conditions: SF-539, CNS
[16] = test system: HOP-92; assay: SRB 48 h growth assay, Non-small Cell Lung HOP-92; assay type: cell-based, human; conditions: HOP-92, Non-small Cell Lung
[17] = test system: HL-60(TB); assay: SRB 48 h growth assay, Leukemia HL-60(TB); assay type: cell-based, human
[18] = test system: six breast cancer cell line (MCF-7, MDA-MB-231/ATCC, HS 578T, TD-47D, MDA-MB-468 and BT-549); assay: in vitro anticancer activity, breast panel; assay type: cell-based; conditions: Homo sapiens; six breast cancer cell lines, exposure at least 48 h; read-out: GI50, range over panel
[19] = test system: IGROV1; assay: SRB 48 h growth assay, Ovarian IGROV1; assay type: cell-based, human
[20] = test system: UACC-257; assay: SRB 48 h growth assay, Melanoma UACC-257; assay type: cell-based, human; conditions: UACC-257, Melanoma
[21] = test system: TK-10; assay: SRB 48 h growth assay, Renal TK-10; assay type: cell-based, human; conditions: TK-10, Renal; for GI50 / CC50: Homo sapiens; for CC50: read-out: Log10 LC50 (converted)
[22] = test system: SF-268; assay: SRB 48 h growth assay, CNS SF-268; assay type: cell-based, human; conditions: SF-268, CNS
[23] = test system: ACHN; assay: SRB 48 h growth assay, Renal ACHN; assay type: cell-based, human
[24] = test system: PC-3; assay: SRB 48 h growth assay, Prostate PC-3; assay type: cell-based, human; conditions: PC-3, Prostate; for GI50 / CC50: Homo sapiens; for CC50: read-out: Log10 LC50 (converted)
[25] = test system: A498; assay: SRB 48 h growth assay, Renal A498; assay type: cell-based, human
[26] = test system: seven ovarian cancer cell lines (IGROV1, OVCAR-3, OVCAR-4, OVCAR-5, OVCAR-8, NCI/ADR-RES and SK-OV-3); assay: in vitro anticancer activity, ovarian panel; assay type: cell-based; conditions: Homo sapiens, exposure at least 48 h, read-out: GI50, range over panel
[27] = Homo sapiens, read-out: Growth Inhibition GI50
[28] = Homo sapiens, read-out: Log10 GI50 (converted)
[29] = Homo sapiens, read-out: Log10 LC50 (converted)
[30] = read-out: Growth Inhibition GI50
[31] = read-out: Log10 GI50 (converted)
[32] = RXF 393, read-out: Growth Inhibition GI50
[33] = RXF 393, read-out: Log10 GI50 (converted)

In the case of C#Cc1ccc(-n2c(/C=C/c3ccc(O)cc3)nc3ncccc3c2=O)cc1 [4b, (E)-3-(4-Ethynylphenyl)-2-(4-hydroxystyryl)pyrido[2,3-d]pyrimidin-4(3H)-one], the GI50 [1, 27] is reported as 22.8 µM, the GI50 [1, 28] is reported as 1.58 µM and the CC50 [1, 29] is reported as > 100 µM. The “Log10 TGI50” value [1] was >−4.00, the “Log10 TGI50” value [2] was −4.85 and the GI50 [2, 27] was 3.33 µM. For the same molecule, the GI50 [2, 28] was 3.31 µM, the LC50 [2, 29] was > 100 µM and the “Log10 TGI50” value [3] was >−4.00. For the same molecule, the GI50 [3, 27] was 5.16 µM, the GI50 [3, 28] was 5.13 µM and the CC50 [3, 29] was > 100 µM. The GI50 [4] was 2.31 to 17.3 µM, the GI50 [5, 27] was 5.97 µM and the GI50 [5, 28] was 6.03 µM. The CC50 [5, 29] was > 100 µM, the “Log10 TGI50” value [5] was >−4.00 and the “Log10 TGI50” value [6] was >−4.00. The GI50 [6, 30] was 11.4 µM, the GI50 [6, 31] was 11.5 µM and the CC50 [6] was > 100 µM. For the same molecule, the “Log10 TGI50” value [7] was −5.36, the GI50 [7, 32] was 1.48 µM and the GI50 [7, 33] was 1.48 µM. For the same molecule, the CC50 [7] was > 72.4 µM, the “Log10 TGI50” value [8] was >−4.00 and the GI50 [8, 30] was 4.74 µM. The GI50 [8, 31] was 4.79 µM, the CC50 [8] was > 100 µM and the GI50 [9, 30] was 3.38 µM. For the same molecule, the GI50 [9, 31] was 3.39 µM, the CC50 [9] was > 100 µM and the “Log10 TGI50” value [9] was −4.54. The GI50 [10, 27] was 0.94 µM, the GI50 [10, 28] was 0.955 µM and the CC50 [10, 29] was > 100 µM. The “Log10 TGI50” value [10] was −4.49, the “Log10 TGI50” value [11] was −5.22 and the GI50 [11, 27] was 2 µM. For the same molecule, the GI50 [11, 28] was 2 µM, the CC50 [11, 29] was > 100 µM and the GI50 [12, 30] was 6.26 µM. The GI50 [12, 31] was 6.31 µM, the CC50 [12] was > 100 µM and the “Log10 TGI50” value [12] was >−4.00. For the same molecule, the “Log10 TGI50” value [13] was −4.25, the GI50 [13, 27] was 5.66 µM and the GI50 [13, 28] was 5.62 µM. The CC50 [13, 29] was > 100 µM, the “Log10 TGI50” value [14] was >−4.00 and the GI50 [14, 30] was 5.28 µM. For the same molecule, the GI50 [14, 31] was 5.25 µM, the CC50 [14] was > 100 µM and the GI50 [15, 27] was 2.12 µM. For the same molecule, the GI50 [15, 28] was 2.14 µM, the CC50 [15, 29] was > 74.1 µM and the “Log10 TGI50” value [15] was −5.21. For the same molecule, the “Log10 TGI50” value [16] was −4.77, the GI50 [16, 27] was 1.8 µM and the GI50 [16, 28] was 1.82 µM. For the same molecule, the CC50 [16, 29] was > 100 µM, the “Log10 TGI50” value [17] was −4.52 and the GI50 [17, 27] was 3.2 µM. The GI50 [17, 28] was 3.24 µM, the CC50 [17, 29] was > 100 µM and the GI50 [18] was 2.83 to 5.85 µM. The “Log10 TGI50” value [19] was −4.45, the GI50 ([19]; Homo sapiens, IGROV-1, read-out: Growth Inhibition GI50) was 4.69 µM and the GI50 ([19]; Homo sapiens, IGROV-1, read-out: Log10 GI50 (converted)) was 4.68 µM. For the same molecule, the CC50 ([19]; Homo sapiens, IGROV-1, read-out: Log10 LC50 (converted)) was > 100 µM, the GI50 [20, 27] was 6.3 µM and the GI50 [20, 28] was 6.31 µM. The CC50 [20, 29] was > 100 µM, the “Log10 TGI50” value [20] was >−4.00 and the GI50 [21, 30] was 8.78 µM. The GI50 [21, 31] was 8.71 µM, the CC50 [21] was > 100 µM and the “Log10 TGI50” value [21] was −4.16. The GI50 [22, 27] was 5.24 µM, the GI50 [22, 28] was 5.25 µM and the CC50 [22, 29] was > 100 µM. For the same molecule, the “Log10 TGI50” value [22] was −4.17, the “Log10 TGI50” value [23] was >−4.00 and the GI50 [23, 27] was 6.31 µM. The GI50 [23, 28] was 6.31 µM, the CC50 [23, 29] was > 100 µM and the GI50 [24, 30] was 3.87 µM. The GI50 [24, 31] was 3.89 µM, the CC50 [24] was > 100 µM and the “Log10 TGI50” value [24] was −4.32. The “Log10 TGI50” value [25] was −5.16, the GI50 [25, 27] was 2.48 µM and the GI50 [25, 28] was 2.45 µM. The CC50 [25, 29] was > 100 µM and the GI50 [26] was 2.33 to 9.67 µM.
C#Cc1ccc(-n2c(/C=C/c3ccc(Cl)c(F)c3)nc3ncccc3c2=O)cc1 [4g, (E)-2-(4-chloro-3-fluorostyryl)-3-(4-ethynylphenyl)pyrido[2,3-d]pyrimidin-4(3H)-one] gave a GI50 [1, 27] of 0.48 µM, a GI50 [1, 28] of 0.479 µM and a GI50 [4] of 0.2 to 0.58 µM. For the same molecule, the CC50 [6] was > 100 µM, the GI50 [7, 32] was 0.28 µM and the GI50 [7, 33] was 0.282 µM. For the same molecule, the CC50 [7] was > 100 µM, the CC50 [8] was > 100 µM and the GI50 [9, 30] was 0.34 µM. For the same molecule, the GI50 [9, 31] was 0.347 µM, the CC50 [9] was > 100 µM and the GI50 [10, 27] was 0.34 µM. The GI50 [10, 28] was 0.339 µM, the GI50 [11, 27] was 0.27 µM and the GI50 [11, 28] was 0.275 µM. For the same molecule, the CC50 [12] was > 100 µM, the GI50 [13, 27] was 0.58 µM and the GI50 [13, 28] was 0.589 µM. The GI50 [14, 30] was 0.41 µM, the GI50 [14, 31] was 0.417 µM and the CC50 [14] was > 100 µM. The GI50 [16, 27] was 0.2 µM, the GI50 [16, 28] was 0.204 µM and the “Log10 TGI50” value [17] was >−4.00. For the same molecule, the GI50 [18] was 0.24 to 0.41 µM, the GI50 [20, 27] was 0.54 µM and the GI50 [20, 28] was 0.537 µM. The CC50 [21] was > 100 µM, the GI50 [23, 27] was 0.39 µM and the GI50 [23, 28] was 0.398 µM. For the same molecule, the GI50 [24, 30] was 0.34 µM, the GI50 [24, 31] was 0.347 µM and the CC50 [24] was > 100 µM. It also gave a GI50 [26] of 0.3 to 0.48 µM.
